Reference: US20220073536A1 (Rigel Pharmaceuticals, Inc., priority 2003, published 2022)
Structures can show the parent of a compound that is named as a salt.

What was measured:
[1] = system: cultured human mast cells (CHMC); assay: CHMC low cell density ionomycin activation: tryptase assay; type: cell-based; settings: low cell density CHMC, tryptase readout, 3 pt, read-out: LD Tryptase, CHMC, Iono, 3 pt
[2] = system: cultured human mast cells (CHMC); assay: CHMC low cell density IgE activation: tryptase assay; type: cell-based; settings: low cell density CHMC, IgE activation, tryptase readout
Procedure, shortened: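 CHMC at 1000–1500 cells/well were preincubated 1 hr at 37° C., stimulated with anti-IgE for 30 minutes at 37° C., then pelleted. Supernatant tryptase was measured with a fluorogenic substrate after 30 min at room temperature, against un-stimulated control wells.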

[3] = Homo sapiens, Mast cell, 3 pt, read-out: LD Tryptase, CHMC, IgE, 3 pt
[4] = Homo sapiens, Mast cell, 8 pt, read-out: LD Tryptase, CHMC, IgE, 8 pt
[5] = 8 pt, read-out: LD Tryptase, CHMC, IgE, 8 pt
[6] = 3 pt, read-out: LD Tryptase, CHMC, IgE, 3 pt

Compound	IC50 ([1]; Homo sapiens, Mast cell) [µM]	IC50 [2, 3] [µM]	IC50 [2, 4] [µM]	IC50 [1] [µM]	IC50 [2, 5] [µM]	IC50 [2, 6] [µM]
Cc1cc(Nc2ncc(F)c(Nc3ccc4c(c3)N(C)C(=O)C(C)(C)O4)n2)cc(Cl)c1OC1CCCC1 [Compound 1034, N2-(3-Chloro-4-cyclopentyloxy-5-methylphenyl)-5-fluoro-N4-(3-oxo-2,2,4-trimethyl-benz[1,4]oxazin-6-yl)-2,4-pyrimidinediamine]	> 10	< 10				
CC1(C)Oc2ccc(Nc3nc(Nc4cccc(-c5cocn5)c4)ncc3F)cc2NC1=O [Compound 1036, N4-(2,2-Dimethyl-3-oxo-4H-benz[1,4]oxazin-6-yl)-5-fluoro-N2-[3-(oxazol-4-yl)phenyl]-2,4-pyrimidinediamine]	< 10	< 10	< 10			
CNC(=O)COc1c(C)cc(Nc2ncc(F)c(Nc3ccc4c(n3)NC(=O)C(C)(C)O4)n2)cc1Cl [Compound 1037, N2-[3-Chloro-5-methyl-4-(N-methylamino)carbonylmethyleneoxyphenyl]-N4-(2,2-dimethyl-3-oxo-4H-5-pyrid[1,4]oxazin-6-yl)-5-fluoro-2,4-pyrimidinediamine]				> 10	< 10	
CCOC(=O)COc1c(C)cc(Nc2ncc(F)c(Nc3ccc4c(n3)NC(=O)C(C)(C)O4)n2)cc1C [Compound 1038, N2-(3,5-Dimethyl-4-ethoxycarbonylmethyleneoxyphenyl)-N4-(2,2-dimethyl-3-oxo-4H-5-pyrid[1,4]oxazin-6-yl)-5-fluoro-2,4-pyrimidinediamine]				> 10	< 10	
Cc1cc(Nc2ncc(F)c(Nc3ccc4c(c3)NC(=O)C(C)(C)O4)n2)cc(Cl)c1OC(C)C [Compound 1039, N2-(3-Chloro-4-isopropoxy-5-methylphenyl)-N4-(2,2-dimethyl-3-oxo-4H-benz[1,4]oxazin-6-yl)-5-fluoro-2,4-pyrimidinediamine]	< 10		< 10			
Cc1cc(Nc2ncc(F)c(Nc3ccc4c(n3)NC(=O)C(C)(C)O4)n2)cc(Cl)c1OC(C)C [Compound 1040, N2-(3-Chloro-4-isopropoxy-5-methylphenyl)-N4-(2,2-dimethyl-3-oxo-4H-5-pyrid[1,4]oxazin-6-yl)-5-fluoro-2,4-pyrimidinediamine]				< 10	> 10	
CNC(=O)COc1c(C)cc(Nc2ncc(F)c(Nc3ccc4c(n3)NC(=O)C(C)(C)O4)n2)cc1C [Compound 1041, N2-[3,5-Dimethyl-4-(N-methylamino)carbonylmethyleneoxyphenyl]-N4-(2,2-dimethyl-3-oxo-4H-5-pyrid[1,4]oxazin-6-yl)-5-fluoro-2,4-pyrimidinediamine]				< 10	< 10	< 10
CCOC(=O)COc1c(C)cc(Nc2ncc(F)c(Nc3ccc4c(n3)NC(=O)C(C)(C)O4)n2)cc1Cl [Compound 1042, N2-(3-Chloro-4-ethoxycarbonylmethyleneoxy-5-methylphenyl)-N4-(2,2-dimethyl-3-oxo-4H-5-pyrid[1,4]oxazin-6-yl)-5-fluoro-2,4-pyrimidinediamine]				> 10		> 10
Cc1cc(Nc2ncc(F)c(Nc3ccc4c(n3)NC(=O)C(C)(C)O4)n2)cc(Cl)c1OCC(=O)NCC(O)CO (stereo not drawn) [Compound 1043, N2-[3-Chloro-4-[N-(2,3-dihydroxypropyl)amino]carbonylmethyleneoxy-5-methylphenyl]-N4-(2,2-dimethyl-3-oxo-4H-5-pyrid[1,4]oxazin-6-yl)-5-fluoro-2,4-pyrimidinediamine]				> 10	< 10	< 10
Cc1cc(Nc2ncc(F)c(Nc3ccc4c(n3)NC(=O)C(C)(C)O4)n2)cc(C)c1OCC(=O)NC1CCCC1 [Compound 1044, N2-[3,5-Dimethyl-4-(N-cyclopentylamino)carbonylmethyleneoxyphenyl]-N4-(2,2-dimethyl-3-oxo-4H-5-pyrid[1,4]oxazin-6-yl)-5-fluoro-2,4-pyrimidinediamine]				> 10	> 10	> 10
CNC(=O)COc1cccc(Nc2ncc(F)c(Nc3ccc4c(c3)NC(=O)C(F)(F)O4)n2)c1 [Compound 1045, N4-(2,2-Difluoro-3-oxo-4H-benz[1,4]oxazin-6-yl)-5-fluoro-N2-[3-(N-methylamino)carbonylmethyleneoxyphenyl]-2,4-pyrimidinediamine Hydrogen Chloride Salt]				> 10	< 10	< 10
CNC(=O)COc1cccc(Nc2ncc(F)c(Nc3ccc4c(c3)NC(=O)C(F)(F)O4)n2)c1 [Compound 1046, N4-(2,2-Difluoro-3-oxo-4H-benz[1,4]oxazin-6-yl)-5-fluoro-N2-[3-(N-methylamino)carbonylmethyleneoxyphenyl]-2,4-pyrimidinediamine Methanesulfonic Acid Salt]				> 10	< 10	< 10
CC1(C)Oc2ccc(Nc3nc(Nc4ccc5cn[nH]c5c4)ncc3F)cc2NC1=O [Compound 1047, N4-(2,2-Dimethyl-3-oxo-4H-benz[1,4]oxazin-6-yl)-5-fluoro-N2-(indazol-6-yl)-2,4-pyrimidinediamine Methanesulfonic Acid Salt]	> 10	> 10	< 10			
Cn1ncc2ccc(Nc3ncc(F)c(Nc4ccc5c(n4)NC(=O)C(C)(C)O5)n3)cc21 [Compound 1056, N4-(2,2-Dimethyl-3-oxo-4H-5-pyrid[1,4]oxazin-6-yl)-5-fluoro-N2-[1-methylindazol-6-yl]-2,4-pyrimidinediamine Hydrogen Chloride Salt]				> 10	< 10	< 10
Cn1ncc2ccc(Nc3ncc(F)c(Nc4ccc5c(n4)NC(=O)C(C)(C)O5)n3)cc21 [Compound 1057, N4-(2,2-Dimethyl-3-oxo-4H-5-pyrid[1,4]oxazin-6-yl)-5-fluoro-N2-[1-methylindazol-6-yl]-2,4-pyrimidinediamine p-Toluenesulfonic Acid Salt]				> 10	< 10	< 10

Other lines, results leading:

IC50 ([1]; Homo sapiens, Mast cell) [µM]	IC50 [2, 3] [µM]	IC50 [2, 4] [µM]	IC50 [1] [µM]	IC50 [2, 5] [µM]	IC50 [2, 6] [µM]	Compound
			> 10	< 10	< 10	CCn1ncc2ccc(Nc3ncc(F)c(Nc4ccc5c(n4)NC(=O)C(C)(C)O5)n3)cc21 [Compound 1049, N4-(2,2-Dimethyl-3-oxo-4H-5-pyrid[1,4]oxazin-6-yl)-N2-(1-ethylindazol-6-yl)-5-fluoro-2,4-pyrimidinediamine]
			> 10	< 10	< 10	CC(C)n1ncc2ccc(Nc3ncc(F)c(Nc4ccc5c(n4)NC(=O)C(C)(C)O5)n3)cc21 [Compound 1050, N4-(2,2-Dimethyl-3-oxo-4H-5-pyrid[1,4]oxazin-6-yl)-N2-(1-isopropylindazol-6-yl)-5-fluoro-2,4-pyrimidinediamine]
			> 10		> 10	CC1(C)CNc2nc(Nc3nc(Cl)ncc3F)ccc2O1 [Compound 1051, 2-Chloro-N4-(3,4-dihydro-2,2-dimethyl-4H-5-pyrid[1,4]oxazin-6-yl)-5-fluoro-4-pyrimidineamine]
			< 10	< 10	< 10	Cn1ncc2ccc(Nc3ncc(F)c(Nc4ccc5c(n4)NCC(C)(C)O5)n3)cc21 [Compound 1052, N4-(3,4-Dihydro-2,2-dimethyl-4H-5-pyrid[1,4]oxazin-6-yl)-5-fluoro-N2-(1-methylindazol-6-yl)-2,4-pyrimidinediamine]
			> 10	< 10	< 10	CNC(=O)COc1cccc(Nc2ncc(F)c(Nc3ccc4c(n3)NCC(C)(C)O4)n2)c1 [Compound 1053, N4-(3,4-Dihydro-2,2-dimethyl-4H-5-pyrid[1,4]oxazin-6-yl)-5-fluoro-N2-[3-(N-methylamino)carbonylmethyleneoxyphenyl]-2,4-pyrimidinediamine]
			> 10	< 10	< 10	CNC(=O)c1ccc(Nc2ncc(F)c(Nc3ccc4c(n3)NC(=O)C(C)(C)O4)n2)cc1Cl [Compound 1054, N2-[3-Chloro-4-(N-methylamino)carbonylphenyl]-N4-(2,2-dimethyl-3-oxo-4H-5-pyrid[1,4]oxazin-6-yl)-5-fluoro-2,4-pyrimidinediamine]
			> 10	< 10	< 10	CC1(C)Oc2ccc(Nc3nc(Nc4ccc5c(c4)OCCO5)ncc3F)nc2NC1=O [Compound 1055, N4-(2,2-Dimethyl-3-oxo-4H-5-pyrid[1,4]oxazin-6-yl)-N2-(3,4-ethylenedioxyphenyl)-5-fluoro-2,4-pyrimidinediamine]
> 10	< 10					CC(=O)N1CCN(c2cccc(Nc3ncc(F)c(NC4CCC4)n3)c2)CC1 [Compound 1085, N2-[3-(4-Acetylpiperazino)phenyl]-N4-cyclobutyl-5-fluoro-2,4-pyrimidinediamine]
			> 10		< 10	CC(C)(C)c1cc(Nc2ncc(F)c(Nc3ccc4c(n3)NC(=O)CO4)n2)n[nH]1 [Compound 1086, N2-(5-tert-Butylpyrazol-3-yl)-5-fluoro-N4-(3-oxo-2H,4H-5-pyrid[1,4]oxazin-6-yl)-2,4-pyrimidinediamine]
> 10	< 10	< 10				Cc1cc(C)cc(Nc2ncc(F)c(NC3CCC3)n2)c1 [Compound 1087, N4-Cyclobutyl-N2-(3,5-dimethylphenyl)-5-fluoro-2,4-pyrimidinediamine]
> 10	< 10	< 10				COc1cc(Nc2ncc(F)c(NC3CCC3)n2)cc(OC)c1 [Compound 1088, N4-Cyclobutyl-N2-(3,5-dimethoxyphenyl)-5-fluoro-2,4-pyrimidinediamine]
